According to PubChem BioAssay AID1259407 (Chemical Carcinogenesis Research Information System (CCRIS), 2018):
Calls of active or inactive are those of the source. No rule for the calls is given here.

Test system: CCRIS mutagenicity, Ames/micronucleus/aberration tests
Test: CCRIS mutagenicity studies

For `CC(=O)Nc1ccc(-c2ccc(N)cc2)cc1`, the mutagenic call (Test System: AMES SALMONELLA TYPHIMURIUM, Strain/Indicator: TA1538, Metabolic Activation: GUINEA PIG, LIVER, HEPATOCYTES, Method: PREINCUBATION) was “active; positive”, the mutagenic call (Test System: AMES SALMONELLA TYPHIMURIUM, Strain/Indicator: TA1538, Metabolic Activation: GUINEA PIG, LIVER, S-9, ACETYL-COA (0.1 OR 1 MILLIMOLAR), Method: PREINCUBATION) was “active; positive” and the mutagenic call (Test System: AMES SALMONELLA TYPHIMURIUM, Strain/Indicator: TA1538, Metabolic Activation: GUINEA PIG, LIVER, S-9, Method: PREINCUBATION) was “active; positive”. For the same compound, the mutagenic call (Test System: AMES SALMONELLA TYPHIMURIUM, Strain/Indicator: TA1538, Metabolic Activation: HAMSTER, LIVER, HEPATOCYTES, Method: PREINCUBATION) was “active; positive”, the mutagenic call (Test System: AMES SALMONELLA TYPHIMURIUM, Strain/Indicator: TA1538, Metabolic Activation: HAMSTER, LIVER, S-9, ACETYL-COA (0.1 OR 1 MILLIMOLAR), Method: PREINCUBATION) was “active; positive” and the mutagenic call (Test System: AMES SALMONELLA TYPHIMURIUM, Strain/Indicator: TA1538, Metabolic Activation: HAMSTER, LIVER, S-9, Method: PREINCUBATION) was “active; positive”. For the same compound, the mutagenic call (Test System: AMES SALMONELLA TYPHIMURIUM, Strain/Indicator: TA1538, Metabolic Activation: RAT, LIVER, HEPATOCYTES, Method: PREINCUBATION) was “active; positive”, the mutagenic call (Test System: AMES SALMONELLA TYPHIMURIUM, Strain/Indicator: TA1538, Metabolic Activation: RAT, LIVER, S-9, ACETYL-COA (0.1 OR 1 MILLIMOLAR), Method: PREINCUBATION) was “active; positive” and the mutagenic call (Test System: AMES SALMONELLA TYPHIMURIUM, Strain/Indicator: TA1538, Metabolic Activation: RAT, LIVER, S-9, Method: PREINCUBATION) was “active; positive”. For the same compound, the mutagenic call (Test System: Ames Salmonella typhimurium, Strain/Indicator: TA102, Metabolic Activation: None, Method: Preincubation) was “inactive; negative” and the mutagenic call (Test System: Ames Salmonella typhimurium, Strain/Indicator: TA102, Metabolic Activation: Rat, liver, S-9, Aroclor 1254, 4%, Method: Preincubation) was “active; positive”.

`Cc1cc2c(c3ccc4ccccc4c13)[C@@H]1O[C@@H]1[C@H](O)[C@H]2O` was tested, and the mutagenic call (Test System: AMES SALMONELLA TYPHIMURIUM, Strain/Indicator: TA100, Metabolic Activation: NONE, Method: PREINCUBATION) was “active; positive”.

For `CCCSP(=O)(OCC)SCCC`, the mutagenic call (End Point: In vitro chromosomal aberrations, Test System: Chinese hamster ovary (CHO) cells, Metabolic Activation: None) was “inactive; negative”, the mutagenic call (End Point: UDS/DNA repair, Test System: Fischer 344 rat (male) hepatocytes, Metabolic Activation: None, Method: Autoradiography) was “inactive; negative” and the mutagenic call (End Point: UDS, Test System: Fischer 344 rat hepatocytes, Metabolic Activation: None, Method: Autoradiography) was “inactive; negative”. For the same compound, the mutagenic call (Test System: Ames Salmonella typhimurium, Strain/Indicator: TA98, Metabolic Activation: None, Method: Plate incorporation) was “inactive; negative”, the mutagenic call (Test System: Ames Salmonella typhimurium, Strain/Indicator: TA98, Metabolic Activation: Rat, Liver, S-9, Method: Plate incorporation) was “inactive; negative” and the mutagenic call (Test System: Ames Salmonella typhimurium, Strain/Indicator: TA100, Metabolic Activation: None, Method: Plate incorporation) was “inactive; negative”. The mutagenic call (Test System: Ames Salmonella typhimurium, Strain/Indicator: TA100, Metabolic Activation: Rat, Liver, S-9, Method: Plate incorporation) was “inactive; negative”, the mutagenic call (Test System: Ames Salmonella typhimurium, Strain/Indicator: TA1535, Metabolic Activation: None, Method: Plate incorporation) was “inactive; negative” and the mutagenic call (Test System: Ames Salmonella typhimurium, Strain/Indicator: TA1535, Metabolic Activation: Rat, Liver, S-9, Method: Plate incorporation) was “inactive; negative”. The mutagenic call (Test System: Ames Salmonella typhimurium, Strain/Indicator: TA1537, Metabolic Activation: None, Method: Plate incorporation) was “inactive; negative”, the mutagenic call (Test System: Ames Salmonella typhimurium, Strain/Indicator: TA1537, Metabolic Activation: Rat, Liver, S-9, Method: Plate incorporation) was “inactive; negative” and the mutagenic call (Test System: Ames Salmonella typhimurium, Strain/Indicator: TA1538, Metabolic Activation: None, Method: Plate incorporation) was “inactive; negative”. For the same compound, the mutagenic call (Test System: Ames Salmonella typhimurium, Strain/Indicator: TA1538, Metabolic Activation: Rat, Liver, S-9, Method: Plate incorporation) was “inactive; negative”, the mutagenic call (Test System: Chinese hamster ovary, Strain/Indicator: CHO-K1-BH4 (HGPRT), Metabolic Activation: None, Method: Suspension/plate) was “inactive; negative” and the mutagenic call (Test System: Chinese hamster ovary, Strain/Indicator: CHO-K1-BH4 (HGPRT), Metabolic Activation: Rat, Liver, S-9, Method: Suspension/plate) was “inactive; negative”. For the same compound, the mutagenic call (Test System: Mouse lymphoma cells, Strain/Indicator: L5178Y cells, Metabolic Activation: None, Method: Plate) was “inactive; negative” and the mutagenic call (Test System: Mouse lymphoma cells, Strain/Indicator: L5178Y cells, Metabolic Activation: S-9, Method: Plate) was “inactive; negative”.
